Reference: patent publication US20210236523A1, “P[…] FOR HEADACHE DISORDERS” (priority 2020, published 2021)

How the values were obtained:
[1] = tested on: patients with migraine headache; assay: Migraine study: acute physiologic and psychotropic effects and adverse events of drug administration; assay type: in vivo, human
Protocol: (§1) Blood pressure, heart rate, and peripheral oxygenation were measured at baseline and throughout experimental sessions. Acute headache pain and associated symptoms (if present) and drug effects (overall, anxiety/fear, sleepiness/sedation, nausea, joy/intense happiness, peace/harmony) were self-reported on a 0-3 scale (0=none, 1=minimal, 2=moderate, 3=definite) at baseline and throughout experimental sessions. Psychedelic effects were self-reported at the end of experimental sessions using the validated 5-Dimensional Altered States of Consciousness (5D-ASC) scale. Subjects were discharged from the NSU at 6 hours after capsule ingestion or once physiological and psychological drug effects had resolved. Only one subject remained in the NSU for an additional 60 minutes until drug effects resolved. Subjects were not allowed to drive themselves after experimental sessions. Emergency contacts, including 24-hour/7-day psychiatry services, were provided to all subjects.
Telephone follow-up was performed the day after and weekly for two weeks after each experimental session, and at 2 and 3 months after the second experimental session.
Statistical analyses were performed using SAS, version 9.4 (SAS Institute Inc., Cary, N.C.) and figures were produced with GraphPad Prism (GraphPad Software Inc., La Jolla, Calif.). All statistical tests were two-sided with an overall pre-hypothesis alpha threshold of 0.05. Measures of error are shown as standard error about the mean (SEM). The primary clinical outcome measure was change in weekly migraine days (WMD) from baseline. This and the secondary measures of migraine burden—changes from baseline in weekly migraine attacks (WMA), pain severity, light sensitivity severity, sound sensitivity severity, nausea/vomiting severity, attack-related functional impairment, and weekly migraine abortive use—were calculated and compared via paired t-test. The time to the next two migraine attacks were also compared between placebo and psilocybin via paired t test. Acute effects of drug administration on mean arterial pressure (MAP), heart rate, peripheral oxygenation, and general drug effects were analyzed via 2-way repeated measures ANOVA with post-hoc Fisher least significant difference (LSD) test (when the interaction existed). Psychotropic effects as measured by the 5D-ASC scale were calculated as a percent of the total possible score 21, 22, as well as the percent possible score of each of the scale's five dimensions—oceanic boundlessness (OBN), dread of ego dissolution (DED), visionary restructuralization (VRS), acoustic alterations (AUA), and vigilance reduction (VIR). Percent possible scores were then compared between placebo and psilocybin via paired t-test. In order to test the assumption that psychotropic effects are unrelated to effects on migraine activity, the maximum rating of general drug effects and the percent total possible 5D-ASC scale score were correlated to the percent change in WMD after psilocybin administration. The number of adverse events (AEs) were compared between placebo and psilocybin using inference on proportions.

[2] = tested on: patients with cluster headache; assay: Cluster headache study: tolerability and adverse events; assay type: in vivo, human
Protocol: as §1, with “Sessions were conducted in the Neurobiological Studies Unit (NSU) at VACHS. Subjects reported to the NSU at 08:00; urine drug, urine pregnancy (when applicable), and alcohol breathalyzer tests were required to be negative in order to proceed. After a standard light breakfast, an intravenous line was placed and baseline measures were collected. Subjects typically received the drug capsule between 08:30 and 09:30. Blood” for “Blood”, “Drug” for “Acute headache pain and associated symptoms (if present) and drug”, “resolved.” for “resolved. Only one subject remained in the NSU for an additional 60 minutes until drug effects resolved.”
Telephone follow-up was performed the day after each experimental session and weekly for two weeks and at 2, 3, and 6 months after the last experimental session.

In the case of `CN(C)CCc1c[nH]c2cccc(OP(=O)(O)O)c12` [psilocybin, 3-(2-dimethylaminoethyl)-1H-indol-4-yl] dihydrogen phosphate], the “maximum increase in mean arterial pressure (MAP) over placebo” value ([1]; at 1.5 hours after capsule ingestion, 0.143 mg/kg oral, mean (SEM)) is reported as 12.2 (4.7) mmHg, the “tingling/paresthesia, cold/shivering, dry mouth, and acute migraine reported” value ([1]; during experimental session, 0.143 mg/kg oral) is reported as “one subject each” and the “lightheadedness and generalized tension/sore muscles, numbers vs placebo” value ([1]; during experimental sessions) is reported as “not significant”. For the same molecule, the “drug x time interaction on heart rate or peripheral oxygenation” value ([1]; during experimental sessions, 0.143 mg/kg oral) was “no significant interactions”, the “5D-ASC scale, percent possible score for the total scale score” value ([1]; end of experimental test day, 0.143 mg/kg oral, mean (SEM), P=0.0263 vs placebo) was 19.35% and the “tension/sore muscles, general headache attack, and migraine attack vs placebo” value ([1]; in the 24 hours following the start of experimental sessions) was “no significant differences”. For the same molecule, the “serious or unexpected adverse events” value ([1]; migraine study, single oral dose 0.143 mg/kg) was “no serious or unexpected AEs”, the “MAP vs placebo (post-hoc Fisher LSD)” value ([1]; starting at 45 minutes until 4 hours after capsule ingestion, 0.143 mg/kg oral) was “significant increase” and the “serious or unexpected adverse events” value ([2]; cluster headache study, 3-dose pulse 0.143 mg/kg) was “no serious or unexpected adverse events”. The “lasting physical or psychological changes” value ([2]; follow-up in the 6 months after study participation) was “no lasting physical or psychological changes” and the “most commonly reported adverse events during acute exposure” value ([2]; self-limiting) was “nausea and anxiety”.
